Measured values as given in ChEMBL document CHEMBL2203269, “Target-Activated Prodrugs (TAPs) for the Autoregulated Inhibition of MMP12” (ACS Med Chem Lett, 2012).
The source made the active and inactive calls.

Legend:
[1] = target: T1, Matrilysin (Homo sapiens) (UniProt P09237); assay: Activity at MMP7
T1 sequence (whole entry): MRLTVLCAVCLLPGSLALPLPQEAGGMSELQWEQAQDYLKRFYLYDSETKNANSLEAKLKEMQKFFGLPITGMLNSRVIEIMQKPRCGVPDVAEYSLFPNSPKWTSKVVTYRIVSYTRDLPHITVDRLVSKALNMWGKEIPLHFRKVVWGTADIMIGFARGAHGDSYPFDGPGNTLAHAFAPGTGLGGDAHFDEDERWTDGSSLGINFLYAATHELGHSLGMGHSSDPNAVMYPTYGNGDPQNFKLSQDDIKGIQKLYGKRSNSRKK

[2] = target: 72 kDa type IV collagenase (Homo sapiens) (UniProt P08253); assay: Activity at MMP2
Sequence of 72 kDa type IV collagenase (Homo sapiens) (P08253 110-660 limits assumed): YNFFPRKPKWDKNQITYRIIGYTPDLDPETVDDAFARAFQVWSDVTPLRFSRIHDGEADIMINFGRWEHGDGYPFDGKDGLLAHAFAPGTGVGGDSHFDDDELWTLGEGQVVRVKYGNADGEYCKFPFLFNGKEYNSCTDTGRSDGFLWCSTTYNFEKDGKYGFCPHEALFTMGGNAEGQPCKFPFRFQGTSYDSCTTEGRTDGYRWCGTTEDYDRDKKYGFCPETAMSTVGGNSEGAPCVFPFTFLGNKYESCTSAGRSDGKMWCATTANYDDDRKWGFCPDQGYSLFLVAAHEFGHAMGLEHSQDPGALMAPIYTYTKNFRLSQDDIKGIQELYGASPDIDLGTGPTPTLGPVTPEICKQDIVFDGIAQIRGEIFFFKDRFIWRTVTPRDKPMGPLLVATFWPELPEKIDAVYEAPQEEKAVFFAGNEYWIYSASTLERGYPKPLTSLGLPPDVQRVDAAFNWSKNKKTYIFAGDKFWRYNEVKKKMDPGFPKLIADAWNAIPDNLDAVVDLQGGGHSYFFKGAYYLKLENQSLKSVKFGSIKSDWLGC

[3] = target: T2, Interstitial collagenase (Homo sapiens) (UniProt P03956); assay: Activity at MMP1
T2 sequence (whole entry): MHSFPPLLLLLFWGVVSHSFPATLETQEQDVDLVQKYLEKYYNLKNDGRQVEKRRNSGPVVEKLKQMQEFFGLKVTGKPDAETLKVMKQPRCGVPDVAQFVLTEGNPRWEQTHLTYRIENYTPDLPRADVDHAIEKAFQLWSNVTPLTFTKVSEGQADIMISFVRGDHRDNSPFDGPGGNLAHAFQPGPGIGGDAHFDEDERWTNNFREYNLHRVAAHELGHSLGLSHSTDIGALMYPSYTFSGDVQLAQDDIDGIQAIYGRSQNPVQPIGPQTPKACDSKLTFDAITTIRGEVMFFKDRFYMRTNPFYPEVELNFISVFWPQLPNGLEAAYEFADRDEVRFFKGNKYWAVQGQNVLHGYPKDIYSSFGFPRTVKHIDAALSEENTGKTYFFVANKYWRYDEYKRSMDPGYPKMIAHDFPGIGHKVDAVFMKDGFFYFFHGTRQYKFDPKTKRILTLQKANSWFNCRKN

Measured: Activity

CC(C)C[C@H](NC(=O)CN(C(=O)[C@H](CC(C)C)NC(=O)[C@@H]1CCCN1C(=O)OCc1ccccc1)S(=O)(=O)c1ccc(-c2ccccc2)cc1)C(=O)N[C@@H](CCC(=O)O)C(=O)N[C@@H](CCC(=O)O)C(=O)N[C@@H](C)C(N)=O
active: [1] | [2] | [3]
